Results published in paper PMC3983011 (2014).
Each block holds one molecule with its values, some of them ahead of it.

Columns and labels:
Conditions in all cases: 150 mM NaCl, 5 mM MgCl2; 10 mM HEPES, pH 7.4, 25 °C; immobilised aptamer
[1] = system: minimal thiM TPP riboswitch (RNA, riboswitch) GGGACUCGGGGUGCCCUUCUGCGUGAAGGCUGAGAAAUACCCGUAUCACCUGAUCUGGAUAAUGCCAGCGUAGGGAAGUCCCCCAAAAAAAAAAAAAAAAAAAAAAAA; test: SPR kinetics, kd/ka, 1:1 fit
[2] = system: TCT8-4 theophylline aptamer (RNA, aptamer) GGGAAGUGAUACCAGCAUCGUCUUGAUGCCCUUGGCAGCACUUCCCCCAAAAAAAAAAAAAAAAAAAAAAAA; test: SPR kinetics, kd/ka, 1:1 fit
[3] = system: TCT8-4 theophylline aptamer (RNA, aptamer) GGGAAGUGAUACCAGCAUCGUCUUGAUGCCCUUGGCAGCACUUCCCCCAAAAAAAAAAAAAAAAAAAAAAAA; test: SPR, steady-state affinity fit
[4] = system: c-di-GMP class II riboswitch (RNA, riboswitch) GGGUAUUUAUAGAAACUGUGAAGUAUAUCUUAAACCUGGGCACUUAAAAGAUAUAUGGAGUUAGUAGUGCAACCUGCUAUAAAUACCCCAAAAAAAAAAAAAAAAAAAAAAAA; test: SPR, steady-state affinity fit
[5] = system: c-di-GMP class II riboswitch (RNA, riboswitch) GGGUAUUUAUAGAAACUGUGAAGUAUAUCUUAAACCUGGGCACUUAAAAGAUAUAUGGAGUUAGUAGUGCAACCUGCUAUAAAUACCCCAAAAAAAAAAAAAAAAAAAAAAAA; test: SPR kinetics, kd/ka, 1:1 fit
[6] = system: minimal MG-4 malachite green aptamer (RNA, aptamer) GGGAUCCCGACUGGCGAGAGCCAGGUAACGAAUGGAUCCCCCCAAAAAAAAAAAAAAAAAAAAAAAA; test: SPR kinetics, kd/ka, 1:1 fit
[7] = system: minimal MG-4 malachite green aptamer (RNA, aptamer) GGGAUCCCGACUGGCGAGAGCCAGGUAACGAAUGGAUCCCCCCAAAAAAAAAAAAAAAAAAAAAAAA; test: SPR, steady-state affinity fit
[8] = system: minimal Tyr 1 tyrosine aptamer (RNA, aptamer) GGGGGCAGUCAACUCGUAAGAUGGCCUUACAGCGGUCAAUACGGGGGUCAUCAGAUAGGGAGGCCCCCCAAAAAAAAAAAAAAAAAAAAAAAA; test: SPR, steady-state affinity fit
[9] = system: DH25.42 ATP aptamer (DNA, aptamer) CCTGGGGGAGTATTGCGGAGGAAGGAAAAAAAAAAAAAAAAAAAAAAAA; test: SPR, steady-state affinity fit
[10] = system: 44.Cit11 citrulline aptamer (RNA, aptamer) GGGACGAGAAGGAGUGCUGGUUAUACUAGCGGUUAGGUCACUCGUCCCCCAAAAAAAAAAAAAAAAAAAAAAAA; test: SPR, steady-state affinity fit
[11] = system: 35FMN-2 flavin mononucleotide aptamer (RNA, aptamer) GGGCGUGUAGGAUAUCGUGUUCGAGAAGGACACGCCCCCCAAAAAAAAAAAAAAAAAAAAAAAA; test: SPR, steady-state affinity fit
[12] = system: 35FMN-2 flavin mononucleotide aptamer (RNA, aptamer) GGGCGUGUAGGAUAUCGUGUUCGAGAAGGACACGCCCCCCAAAAAAAAAAAAAAAAAAAAAAAA; test: SPR kinetics, kd/ka, 1:1 fit
[13] = system: 44.Arg11 arginine aptamer (RNA, aptamer) GGGACGAGAAGGAGCGCUGGUUAUACUAGCAGGUAGGUCACUCGUCCCCCAAAAAAAAAAAAAAAAAAAAAAAA; test: SPR, steady-state affinity fit

KD,kinetic [1]: 0.89 ± 0.8 nM
SMILES: Cc1ncc(C[n+]2csc(CCOP(=O)(O)OP(=O)(O)O)c2C)c(N)n1

KD,kinetic [2]: 430 ± 40 nM
KD,equilibrium [3]: 340 ± 20 nM
SMILES: Cn1c(=O)c2[nH]cnc2n(C)c1=O

KD,equilibrium [4]: 120 ± 20 nM
KD,kinetic [5]: 60 ± 31 nM
SMILES: Nc1nc2c(ncn2[C@@H]2O[C@@H]3COP(=O)(O)O[C@H]4[C@@H](O)[C@H](n5cnc6c(=O)[nH]c(N)nc65)O[C@@H]4COP(=O)(O)O[C@H]3[C@H]2O)c(=O)[nH]1

KD,kinetic [6]: 950 ± 340 nM
KD,equilibrium [7]: 2000 ± 100 nM
SMILES: CN(C)c1ccc(C(=C2C=CC(=[N+](C)C)C=C2)c2ccccc2)cc1

KD,equilibrium [8]: 17000 ± 6000 nM
SMILES: N[C@@H](Cc1ccc(O)cc1)C(=O)O

KD,equilibrium [9]: 8800 ± 3000 nM
SMILES: Nc1ncnc2c1ncn2[C@@H]1O[C@H](COP(=O)(O)OP(=O)(O)OP(=O)(O)O)[C@@H](O)[C@H]1O

KD,equilibrium [10]: 31000 ± 1000 nM
SMILES: NC(=O)NCCC[C@H](N)C(=O)O

KD,equilibrium [11]: 710 ± 20 nM
KD,kinetic [12]: 1100 ± 400 nM
SMILES: Cc1cc2nc3c(=O)[nH]c(=O)nc-3n(C[C@H](O)[C@H](O)[C@H](O)COP(=O)(O)O)c2cc1C

KD,equilibrium [13]: 140000 ± 40000 nM
SMILES: N=C(N)NCCC[C@H](N)C(=O)O
